# Measurements from ChEMBL document CHEMBL4813938, “Astragaloside IV Improves Tibial Defect in Rats and Promotes Proliferation and Osteogenic Differentiation of hBMSCs through MiR-124-3p.1/STAT3 Axis” (J Nat Prod, 2021).
# The source made the active and inactive calls. The calls are words filed in the database; no cut-off is given here.
# Experiments:
# Rattus norvegicus [1] = assay: Induction of tibial bone defect regeneration in ip dosed Lewis rat assessed as reduction in […] mRNA expression level administered for 10 consecutive days by RT-qPCR analysis; type: functional, organism-based; settings: dose 0.16-4 g/Kg, time 10.0 day
# Rattus norvegicus [2] = assay: Induction of tibial bone defect regeneration in ip dosed Lewis rat assessed as […] in STAT3 mRNA expression level administered for 10 consecutive days by RT-qPCR analysis; type: functional, organism-based; settings: dose 0.16-4 g/Kg, time 10.0 day
# Rattus norvegicus [3] = assay: Induction of tibial bone defect regeneration in ip dosed Lewis rat assessed as […] in STAT3 protein expression level administered for 10 consecutive days by Western blotting analysis; type: functional, organism-based; settings: dose 0.16-4 g/Kg, time 10.0 day
# Rattus norvegicus [4] = assay: Induction of tibial bone defect regeneration in ip dosed Lewis rat assessed as increase in BV/TV of tibial bone administered for 10 consecutive days by microcomputed tomography method; type: functional, organism-based; settings: dose 0.16-4 g/Kg, time 10.0 day
# Rattus norvegicus [5] = assay: Induction of tibial bone defect regeneration in ip dosed Lewis rat assessed as increase in Tb.N of tibial bone administered for 10 consecutive days by microcomputed tomography method; type: functional, organism-based; settings: dose 0.16-4 g/Kg, time 10.0 day
# Rattus norvegicus [6] = assay: Induction of tibial bone defect regeneration in ip dosed Lewis rat assessed as increase in Tb.Th of tibial bone administered for 10 consecutive days by microcomputed tomography method; type: functional, organism-based; settings: dose 0.16-4 g/Kg, time 10.0 day
# Rattus norvegicus [7] = assay: Induction of tibial bone defect regeneration in ip dosed Lewis rat assessed as increase in BMD of tibial bone administered for 10 consecutive days by microcomputed tomography method; type: functional, organism-based; settings: dose 0.16-4 g/Kg, time 10.0 day
# Rattus norvegicus [8] = assay: Induction of tibial bone defect regeneration in ip dosed Lewis rat assessed as decrease in Tb.Sp of tibial bone administered for 10 consecutive days by microcomputed tomography method; type: functional, organism-based; settings: dose 0.16-4 g/Kg, time 10.0 day
# HBMSC [9] = assay: Induction of osteogenic differentiation in human BMSCs assessed as increase in cell viability incubated for 72 hrs under osteogenic conditions by MTT assay; type: functional, tissue-based; settings: dose 80-320 mg/ml
# HBMSC [10] = assay: Induction of cell cycle arrest in human BMSCs assessed as decrease in cells at G0/G1 phase under osteogenic conditions by PI staining based flow cytometric analysis; type: functional; settings: dose 80-320 mg/ml
# HBMSC [11] = assay: Induction of cell cycle arrest in human BMSCs assessed as accumulation of cells at S phase under osteogenic conditions by PI staining based flow cytometric analysis; type: functional, tissue-based; settings: dose 80-320 mg/ml
# HBMSC [12] = assay: Induction of cell cycle arrest in human BMSCs assessed as accumulation of cells at G2/M phase under osteogenic conditions by PI staining based flow cytometric analysis; type: functional, tissue-based; settings: dose 80-320 mg/ml
# HBMSC [13] = assay: Induction of osteogenic differentiation in human BMSCs assessed as increase in alkaline phosphatase activity incubated for 21 days under osteogenic conditions by ELISA; type: functional, tissue-based; settings: dose 80-320 mg/ml, time 21.0 day
# HBMSC [14] = assay: Induction of osteogenic differentiation in human BMSCs assessed as increase in osteogenic medium-induced matrix mineralization by measuring calcium deposition by Alizarin Red S staining-based microscopic analysis; type: functional, tissue-based; settings: dose 80-320 mg/ml
# HBMSC [15] = assay: Induction of osteogenic differentiation in human BMSCs assessed as increase in osteogenic medium-induced RUNX2 protein expression level by Western blot analysis; type: functional, tissue-based; settings: dose 80-320 mg/ml
# HBMSC [16] = assay: Induction of osteogenic differentiation in human BMSCs assessed as increase in osteogenic medium-induced OCN protein expression level by Western blot analysis; type: functional, tissue-based; settings: dose 80-320 mg/ml
# HBMSC [17] = assay: Induction of osteogenic differentiation in human BMSCs assessed as increase in osteogenic medium-induced Smad4 protein expression level by Western blot analysis; type: functional, tissue-based; settings: dose 80-320 mg/ml
# HBMSC [18] = assay: Induction of osteogenic differentiation in human BMSCs assessed as increase in osteogenic medium-induced RUNX2 mRNA expression level by RT-qPCR analysis; type: functional, tissue-based
# HBMSC [19] = assay: Induction of osteogenic differentiation in human BMSCs assessed as increase in osteogenic medium-induced OCN mRNA expression level by RT-qPCR analysis; type: functional, tissue-based; settings: dose 80-320 mg/ml
# HBMSC [20] = assay: Induction of osteogenic differentiation in human BMSCs assessed as increase in osteogenic medium-induced Smad4 mRNA expression level by RT-qPCR analysis; type: functional, tissue-based; settings: dose 80-320 mg/ml
# HBMSC [21] = assay: Induction of osteogenic differentiation in human BMSCs assessed as down regulation of miR-124-3p.1 mRNA expression level at 160 mg/ml under osteogenic condition by RT-qPCR analysis; type: functional, tissue-based
# Rattus norvegicus [22] = assay: Induction of tibial bone defect regeneration in ip dosed Lewis rat assessed as alleviation of bone injury administered for 10 consecutive days by HE staining based assay; type: functional, organism-based; settings: dose 0.16-4 g/Kg, time 10.0 day
# Rattus norvegicus [23] = assay: Induction of tibial bone defect regeneration in ip dosed Lewis rat assessed as increase in Conn.D of tibial bone administered for 10 consecutive days by microcomputed tomography method; type: functional, organism-based; settings: dose 0.16-4 g/Kg, time 10.0 day
# HBMSC [24] = assay: Induction of osteogenic differentiation in human BMSCs overexpressing miR-124-3p.1 assessed as increase in cell viability at 160 mg/ml incubated for 72 hrs under osteogenic conditions by MTT assay; type: functional, tissue-based
# HBMSC [25] = assay: Induction of cell cycle arrest in human BMSCs overexpressing miR-124-3p.1 assessed as decrease in cells at G0/G1 phase at 160 mg/ml under osteogenic conditions by PI staining based flow cytometric analysis; type: functional
# HBMSC [26] = assay: Induction of cell cycle arrest in human BMSCs overexpressing miR-124-3p.1 assessed as accumulation of cells at S phase at 160 mg/ml under osteogenic conditions by PI staining based flow cytometric analysis; type: functional, tissue-based
# HBMSC [27] = assay: Induction of cell cycle arrest in human BMSCs overexpressing miR-124-3p.1 assessed as accumulation of cells at G2/M phase at 160 mg/ml under osteogenic conditions by PI staining based flow cytometric analysis; type: functional, tissue-based
# HBMSC [28] = assay: Induction of osteogenic differentiation in human BMSCs overexpressing miR-124-3p.1 assessed as increase in alkaline phosphatase activity at 160 mg/ml incubated for 21 days under osteogenic conditions by ELISA; type: functional, tissue-based; settings: time 21.0 day
# HBMSC [29] = assay: Induction of osteogenic differentiation in human BMSCs overexpressing miR-124-3p.1 assessed as increase in osteogenic medium-induced matrix mineralization by measuring calcium deposition at 160 mg/ml by Alizarin Red S staining-based microscopic analysis; type: functional, tissue-based
# HBMSC [30] = assay: Induction of osteogenic differentiation in human BMSCs overexpressing miR-124-3p.1 assessed as increase in osteogenic medium-induced RUNX2 protein expression level at 160 mg/ml by Western blot analysis; type: functional, tissue-based
# HBMSC [31] = assay: Induction of osteogenic differentiation in human BMSCs overexpressing miR-124-3p.1 assessed as increase in osteogenic medium-induced OCN protein expression level at 160 mg/ml by Western blot analysis; type: functional
# HBMSC [32] = assay: Induction of osteogenic differentiation in human BMSCs overexpressing miR-124-3p.1 assessed as increase in osteogenic medium-induced Smad4 protein expression level at 160 mg/ml by Western blot analysis; type: functional, tissue-based
# HBMSC [33] = assay: Induction of osteogenic differentiation in human BMSCs overexpressing miR-124-3p.1 assessed as increase in osteogenic medium-induced RUNX2 mRNA expression level at 160 mg/ml by RT-qPCR analysis; type: functional, tissue-based
# HBMSC [34] = assay: Induction of osteogenic differentiation in human BMSCs overexpressing miR-124-3p.1 assessed as increase in osteogenic medium-induced OCN mRNA expression level at 160 mg/ml by RT-qPCR analysis; type: functional, tissue-based
# HBMSC [35] = assay: Induction of osteogenic differentiation in human BMSCs overexpressing miR-124-3p.1 assessed as increase in osteogenic medium-induced Smad4 mRNA expression level at 160 mg/ml by RT-qPCR analysis; type: functional, tissue-based
smiles,measurement,setting,value
CC(C)(O)[C@@H]1CC[C@](C)([C@H]2[C@@H](O)C[C@@]3(C)[C@@H]4C[C@H](O[C@@H]5O[C@H](CO)[C@@H](O)[C@H](O)[C@H]5O)[C@H]5C(C)(C)[C@@H](O[C@@H]6OC[C@@H](O)[C@H](O)[C@H]6O)CC[C@@]56C[C@@]46CC[C@]23C)O1,Activity,Rattus norvegicus [1],Dose-Dependent Effect
same,Activity,Rattus norvegicus [2],Dose-Dependent Effect
same,Activity,Rattus norvegicus [3],Dose-Dependent Effect
same,Activity,Rattus norvegicus [4],Dose-Dependent Effect
same,Activity,Rattus norvegicus [5],Dose-Dependent Effect
same,Activity,Rattus norvegicus [6],Dose-Dependent Effect
same,Activity,Rattus norvegicus [7],Dose-Dependent Effect
same,Activity,Rattus norvegicus [8],Dose-Dependent Effect
same,Activity,HBMSC [9],Dose-Dependent Effect
same,Activity,HBMSC [10],Dose-Dependent Effect
same,Activity,HBMSC [11],Dose-Dependent Effect
same,Activity,HBMSC [12],Dose-Dependent Effect
same,Activity,HBMSC [13],Dose-Dependent Effect
same,Activity,HBMSC [14],Dose-Dependent Effect
same,Activity,HBMSC [15],Dose-Dependent Effect
same,Activity,HBMSC [16],Dose-Dependent Effect
same,Activity,HBMSC [17],Dose-Dependent Effect
same,Activity,HBMSC [18],Dose-Dependent Effect
same,Activity,HBMSC [19],Dose-Dependent Effect
same,Activity,HBMSC [20],Dose-Dependent Effect
same,Activity,HBMSC [21],Active
same,Activity,Rattus norvegicus [22],Dose-Dependent Effect
same,Activity,Rattus norvegicus [23],Dose-Dependent Effect
same,Activity,HBMSC [24],inactive
same,Activity,HBMSC [25],inactive
same,Activity,HBMSC [26],inactive
same,Activity,HBMSC [27],inactive
same,Activity,HBMSC [28],inactive
same,Activity,HBMSC [29],inactive
same,Activity,HBMSC [30],inactive
same,Activity,HBMSC [31],inactive
same,Activity,HBMSC [32],inactive
same,Activity,HBMSC [33],inactive
same,Activity,HBMSC [34],inactive
same,Activity,HBMSC [35],inactive
